Where a name gives a salt, the structure may show the parent alone. Bounds are passed on as bounds.

The test system of the assay is MTT (mouse pheochromocytoma). As to the kind of experiment: IC50 of cell viability (ATP content). As to conditions: (24 or 48 h). An outline of the steps:
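Each well of a white 1536-well plate received 5 µl of MTT mouse pheochromocytoma cells at 200,000 cells/ml in DMEM containing 5% FBS and 1% horse serum. After overnight culture at 37°C, 5% CO2, cells were exposed for 24 or 48 hrs to 23 nl of library compound in DMSO, pinned at 8 final concentrations from 0.5 nM to 46 µM. CellTiter-Glo luminescence was read after 15 minutes, and IC50 was obtained from a four-parameter logistic fit of signals normalised to positive-control and DMSO wells.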
Turning to `CCC(=O)O[C@]1(C(=O)CCl)[C@@H](C)CC2C3C[C@H](F)C4=CC(=O)C=CC4(C)[C@@]3(F)C(O)CC21C` (some centres undefined) [HALOBETASOL PROPIONATE], the “IC50 of cell viability” value was over 46 µM. Consider `O=C(CC1NCCC[C@H]1O)Cn1cnc2cc(Br)c(Cl)cc2c1=O` (some centres undefined) [HALOFUGINONE LACTATE], for which the “IC50 of cell viability” value was over 46 µM.

`O=C(CCCN1CCC(O)(c2ccc(Cl)cc2)CC1)c1ccc(F)cc1` [HALOPERIDOL]: the “IC50 of cell viability” value is over 46 µM. Under `CC(N)CCCC(C)(C)O.Cl` (centres undefined) [HEPTAMINOL HYDROCHLORIDE] stands over 46 µM; under `CC1(C)SC2C(N3C(=O)C(c4ccccc4)NC3(C)C)C(=O)N2C1C(=O)[O-].[K+]` (centres undefined) [HETACILLIN POTASSIUM], over 46 µM; under `C[N+](C)(C)CCCCCC[N+](C)(C)C` [HEXAMETHONIUM], over 46 µM.

Take `CC(C)CCCC(C)CCCC(C)CCCCC(C)CCCC(C)CCCC(C)C` (centres undefined) [HEXAMETHYLTETRACOSANE]: the “IC50 of cell viability” value is over 46 µM. As for `CN1C(=O)NC(=O)C(C)(C2=CCCCC2)C1=O` (centres undefined) [HEXOBARBITAL], the “IC50 of cell viability” value was over 46 µM. Under `Oc1ccc(C(O)CNCCCCCCNCC(O)c2ccc(O)c(O)c2)cc1O` (centres undefined) [HEXOPRENALINE SULFATE] stands over 46 µM; under `CCCCCCOC(=O)c1cccnc1` [HEXYL NICOTINATE], over 46 µM; under `NCCc1c[nH]cn1` [HISTAMINE], over 46 µM.

In the case of `CN(C)CCc1ccc(O)cc1` [HORDENINE], the “IC50 of cell viability” value is over 46 µM. For `CC(=O)N[C@@H]1C(O[C@H]2O[C@H](C(=O)O)C(O)[C@H](O)[C@H]2O)[C@H](O)[C@@H](CO)O[C@H]1O[C@@H]1C(C(=O)O)O[C@@H](O[C@H]2[C@H](O)[C@@H](CO)OC(O)[C@@H]2NC(C)=O)[C@H](O)[C@H]1O` (some centres undefined) [HYALURONATE SODIUM] the value was over 46 µM; for `N[S+](=O)([O-])c1cc2c(cc1Cl)NCN[S+]2(=O)[O-]` [HYDROCHLOROTHIAZIDE], over 46 µM; for `COc1ccc2c3c1O[C@H]1C(=O)CC[C@H]4[C@@H](C2)N(C)CC[C@]314` [HYDROCODONE BITARTRATE], over 46 µM.

As to `CCCC(=O)O[C@@]1(CCC2[C@@H]3CCC/4=C/C(=O)CC[C@]4(C)C3C(O)C[C@@]12C)C(=O)CO` (some centres undefined) [HYDROCORTISONE BUTYRATE], the “IC50 of cell viability” value is over 46 µM. Under `CCCC(=O)O[C@]1(C(=O)COC(=O)CC)CC[C@@H]2[C@@H]3CCC4=CC(=O)CC[C@]4(C)[C@H]3[C@@H](O)C[C@@]21C` [HYDROCORTISONE PROBUTATE] stands over 46 µM; under `C[C@]12CCC(=O)C=C1CC[C@@H]1[C@@H]2[C@@H](O)C[C@@]2(C)[C@H]1CC[C@]2(O)C(=O)COP(=O)([O-])[O-]` [HYDROCORTISONE SODIUM PHOSPHATE], over 46 µM; under `CCCCC(=O)O[C@@]1(CCC2C3CC\C4=C\C(=O)CCC4(C)C3C(O)CC12C)C(=O)CO` (some centres undefined) [HYDROCORTISONE VALERATE], over 46 µM. As to `C[C@]\12CCC(=O)\C=C1CC[C@H]3[C@@H]4CC[C@](O)(C(=O)CO)[C@@]4(C)C[C@H](O)[C@H]23` [HYDROCORTISONE], the “IC50 of cell viability” value was over 46 µM. For `Br.CC(N)Cc1ccc(O)cc1` (centres undefined) [HYDROXYAMPHETAMINE HYDROBROMIDE] the value was over 46 µM. For `CCN(CCO)CCCC(C)Nc1ccnc2cc(Cl)ccc12` (centres undefined) [HYDROXYCHLOROQUINE SULFATE] the value was over 46 µM. Turning to `CC(CC=O)CCCC(C)(C)O` (centres undefined) [HYDROXYCITRONELLAL], the “IC50 of cell viability” value is over 46 µM. Under `N=C(N)c1ccc(/C=C/c2ccc(C(=N)N)cc2O)cc1` [HYDROXYSTILBAMIDINE ISETHIONATE] stands over 46 µM; under `Nc1c2c(nc3ccccc13)CCCC2O` (centres undefined) [HYDROXYTACRINE], over 46 µM; under `Cc1cccc(C(=O)O)c1O` [HYDROXYTOLUIC ACID], over 46 µM. For `NC(=O)NO` [HYDROXYUREA] the value was over 46 µM; for `CNC1CC(N)[C@H](O)[C@@H](O[C@@H]2OC(CO)C3OC4(OC(C(N)CO)C(O)C(O)C4O)O[C@@H]3[C@H]2O)C1O` (some centres undefined) [HYGROMYCIN B], over 46 µM.

In the case of `O=C1N\C=N/C2=C1[NH]C=N2` [HYPOXANTHINE], the “IC50 of cell viability” value was over 46 µM. For `CC1(C)O[C@H]2C[C@@H]3[C@H]4CC\C5=C\C(=O)CC[C@@]5(C)[C@]4(F)[C@@H](O)C[C@]3(C)[C@]2(O1)C(=O)CCl` [Halcinonide] the value was over 46 µM.

For `CCCCN(CCCC)CC[C@H](O)c1cc2c(Cl)cc(Cl)cc2c2cc(C(F)(F)F)ccc12` [Halofantrine hydrochloride], the “IC50 of cell viability” value was over 46 µM. Under `C[C@@H]1CC2[C@@H]3C[C@H](F)C4=CC(=O)C(Cl)=C[C@]4(C)[C@@]3(F)[C@H](O)C[C@]2(C)[C@@]1(O)C(=O)CO` (some centres undefined) [Halometasona] stands over 46 µM. For `FC(F)(F)C(Cl)Br` (centres undefined) [Halothane] the value was over 46 µM; for `Cc1c(Cl)c(=O)oc2cc(OP(=O)(OCCCl)OCCCl)ccc12` [Haloxon], over 46 µM. For `C[C@H]1CC[C@]2(OC1)O[C@@H]1C[C@@H]3[C@H]4CC[C@H]5C[C@@H](O)CC[C@]5(C)[C@@H]4CC(=O)[C@@]3(C)[C@H]1[C@@H]2C` [Hecogenin] the value was over 46 µM.

Consider `COc1ccc([C@@H]2CC(=O)c3c(O)cc(O[C@@H]4O[C@@H](CO[C@@H]5O[C@@H](C)[C@@H](O)[C@@H](O)[C@H]5O)[C@@H](O)[C@@H](O)[C@H]4O)cc3O2)cc1O` [Hesperidin], for which the “IC50 of cell viability” value was over 46 µM. Under `CCCCCCCCCCCCCCCCN` [Hetaflur] stands over 46 µM; under `CCCCCCCCCCCCCCCC(=O)OC(C)C` [Hexadecanoic acid, 1-methylethyl ester], over 46 µM; under `CCCCCCCCCCCCCCCC(=O)O` [Hexadecanoic acid], over 46 µM. As for `C[N+](C)(CCCCCC[N+](C)(C)C1c2ccccc2-c2ccccc21)C1c2ccccc2-c2ccccc21` [Hexafluorenium dibromide], the “IC50 of cell viability” value is over 46 µM. Under `CCCCCC(N)=O` [Hexanamide] stands over 46 µM. As to `CC[C@H](c1ccc(O)cc1)[C@@H](CC)c1ccc(O)cc1` [Hexestrol], the “IC50 of cell viability” value was over 46 µM.

Consider `CCCC[C@H](CC)CN1CN(C[C@@H](CC)CCCC)CC(C)(N)C1` [Hexetidine], for which the “IC50 of cell viability” value was over 46 µM. For `CN1C(=O)NC(=O)C(C)(C2=CCCCC2)C1=O` (centres undefined) [Hexobarbital] the value was over 46 µM; for `C[N+]1(C)CCN(C[C@@](O)(c2ccccc2)C2CCCCC2)CC1` [Hexocyclium methosulfate], over 46 µM; for `C[C@@H](CNC1CCCCC1)OC(=O)c1ccccc1` [Hexylcaine hydrochloride], over 46 µM. Under `CC(=O)[C@@]1(O)CC[C@H]2[C@@H]3CC\C4=C\C(=O)CC[C@]4(C)[C@H]3CC[C@]12C` [Hidroxiprogesterona] stands over 46 µM. Take `CC1CC(OC(=O)c2ccccc2O)CC(C)(C)C1` (centres undefined) [Homosalate]: the “IC50 of cell viability” value was over 46 µM. As to `NNc1nncc2ccccc12` [Hydralazine hydrochloride], the “IC50 of cell viability” value is over 46 µM. For `C[C@]\12CCC(=O)\C=C1CC[C@H]3[C@@H]4CC[C@](O)(C(=O)COC(=O)CCC(O)=O)[C@@]4(C)C[C@H](O)[C@H]23` [Hydrocortisone 21-hemisuccinate sodium salt] the value was over 46 µM.

With `CC(=O)OCC(=O)C1(O)CCC2C3CCC/4=C/C(=O)CCC4(C)C3C(O)CC12C` (centres undefined) [Hydrocortisone acetate], the “IC50 of cell viability” value is over 46 µM. For `COc1c2c(cc3c1OCO3)CCN(C)C2` [Hydrocotarnine hydrobromide] the value was over 46 µM. For the compound `N[S+](=O)([O-])c1cc2c(cc1C(F)(F)F)NCN[S+]2(=O)[O-]` [Hydroflumethiazide], the “IC50 of cell viability” value is over 46 µM. Under `Oc1ccc(O)cc1` [Hydroquinone] stands over 46 µM. For `O.O.O=S([O-])CO.[Na+]` [Hydroxymethanesulfinic acid monosodium salt dihydrate] the value was over 46 µM; for `CN[C@H]1C[C@@H](N)[C@H](O)[C@@H](O[C@@H]2O[C@H](CO)[C@H](O)[C@@H]3O[C@]4(O[C@@H]23)O[C@H]([C@@H](N)CO)[C@H](O)[C@@H](O)[C@H]4O)[C@@H]1O` [Hygromycin B], over 46 µM; for `C\C1=C\C(=O)OC2=C1C=CC(=C2)O` [Hymecromone], over 46 µM. On to `CCCCCN(C)CC[C@@](O)(P(=O)([O-])O)P(=O)(O)O` [IBANDRONATE SODIUM], for which the “IC50 of cell viability” value was over 46 µM. For `CC(=O)[C@]1(O)Cc2c(O)c3c(c(O)c2[C@@H](O[C@H]2C[C@H](N)[C@H](O)[C@H](C)O2)C1)C(=O)c1ccccc1C3=O` [IDARUBICIN HYDROCHLORIDE] the value was over 46 µM; for `C1C\N=C(/N1)C2COC3=C(O2)C=CC=C3` (centres undefined) [IDAZOXAN], over 46 µM; for `CC(C(O)c1ccc(O)cc1)N1CCC(Cc2ccccc2)CC1` (centres undefined) [IFENPRODIL], over 46 µM. Under `CNC(=O)[C@H](Cc1c[nH]c2ccccc12)NC(=O)[C@@H](CC(=O)NO)CC(C)C` [ILOMASTATUM] stands over 46 µM; under `Cc1ccc(NC(=O)c2ccc(CN3CCN(C)CC3)cc2)cc1Nc1nccc(-c2cccnc2)n1` [IMATINIB MESYLATE], over 46 µM.

In the case of `NC1=NC(=O)N2CC12` (centres undefined) [IMEXON], the “IC50 of cell viability” value is over 46 µM.

The record behind these values is the supplement of paper PMC3974653.
